Results taken from patent US20080107751A1, “Antimicrobial Wax Composition for Wax Therapy” (priority 2004, published 2008).

Experiments:
E. Coli 0157 = experiment: Growth and survival of E. Coli 0157 in molten wax composition; assay type: cell-based
Protocol: (§1) In its simplest form, the wax composition according to the present invention comprises a wax component and an antimicrobial component. The preferred wax is conventional, physio-therapy-grade paraffin wax that is solid at room temperature and has a melting point around 120° F. The preferred antimicrobial agent or component is triclosan, which is a phenolic, broad-spectrum antimicrobial that is generally regarded as safe for use on human skin, and even for ingestion by humans in small amounts. It is available from several sources, including Ciba Specialty Chemicals Corporation, 4090 Premier Drive, High Point, N.C. 27265. […] These bacteria were selected for testing as common human pathogens that are commonly found on the hands. Additionally, these pathogens also model the “survivability” of other pathogens that could be found in the melted wax.
(§2) This is the preferred concentration of the triclosan antimicrobial in the molten wax composition according to the present invention. As disclosed in connection with the below examples, this is about 0.18-0.2% by weight of the total composition.

Staphylococcus aurea = experiment: Growth and survival of Staphylococcus in molten wax composition; assay type: cell-based, Staphylococcus aureus
Protocol: as §1, §2

Streptococcus = experiment: Growth and survival of Streptococcus in molten wax composition; assay type: cell-based; settings: triclosan 500 μg/ml up to 1000 μg/ml in molten wax
Source text: as §2

human pathogens = experiment: Growth of pathogens in molten wax composition containing triclosan; assay type: cell-based
Protocol: as §1, §2
The foregoing examples vary primarily in their fragrance and coloration. They are by way of example only and not intended to be by way of limitation. Variation of other components is regarded as within the invention. […]

[1] = tested on: Salmonella (both enteritidis and typhimurium strains); experiment: Growth and survival of Salmonella in molten wax composition; assay type: cell-based
Protocol: as §1, §2

[2] = molten wax, versus absence of triclosan
[3] = triclosan 500 μg/ml up to 1000 μg/ml in molten wax

Oc1cc(Cl)ccc1Oc1ccc(Cl)cc1Cl [triclosan]
time of survivability in wax composition (E. Coli 0157; molten wax): decrease
growth of bacteria in wax composition (E. Coli 0157; [2]): inhibit growth
growth and survival (E. Coli 0157; [3]): permitted growth and survival
time of survivability in wax composition (Staphylococcus aurea; molten wax): decrease
growth of bacteria in wax composition (Staphylococcus aurea; [2]): inhibit growth
growth and survival (Staphylococcus aurea; [3]): permitted growth and survival
growth and survival (Streptococcus): permitted growth and survival
concentration that inhibits the growth of both pathogens (human pathogens; molten wax composition, about 0.18-0.2% by weight): 2000 µg/mL
concentration found to inhibit growth of pathogens in wax (human pathogens; wax maintained at 52.5° C. or 126.5° F., concentrations as low as): ≥ 500 µg/mL
time of survivability in wax composition ([1]; molten wax): decrease
growth of bacteria in wax composition [1, 2]: inhibit growth
growth and survival ([1]; triclosan 500 μg/ml up to 1000 μg/ml in molten wax, Salmonella apparently eliminated by heat alone): not
